Assays:
Test in all cases: relative viability (nuclei count vs DMSO), 5 days (fraction); higher = more cells survive
Calu-6 = system: Calu-6
Outline: (§1)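 Nuclei were stained with Hoechst during a one-step fixation (final 0.05% Triton X-100, 1% formaldehyde, 1 ug/ml Hoechst) carried out 5 days after dosing, then counted on 4× images. The cells, lung cancer lines in 1536-well plates, had been dosed by pin tool the day after seeding with one drug alone or a fixed anchor-drug dose plus five library-drug doses (not always all listed) in √10 steps. Relative viability is the nuclei count in treated wells divided by that in vehicle wells, and each value is the median of duplicate plates.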

EBC-1 = system: EBC-1
Outline: as §1

IA-LM = system: IA-LM
Outline: as §1

NCI-H1299 = system: NCI-H1299
Outline: as §1

NCI-H1563 = system: NCI-H1563
Outline: as §1

NCI-H1703 = system: NCI-H1703
Outline: as §1

A549 = system: A549
Outline: as §1

O=C(O)CCCCC(CCSCc1ccccc1)SCc1ccccc1 (stereo not given) [CPI-613] + CC(C)C[C@H](NC(=O)[C@H](Cc1ccccc1)NC(=O)c1cnccn1)B(O)O [Bortezomib] (partner 0.002 µM)
relative viability (Calu-6; first compound 5 µM): 0.945 | relative viability (Calu-6; first compound 15.81 µM): 0.887 | relative viability (Calu-6; first compound 50 µM): 0.879 | relative viability (Calu-6; first compound 158.11 µM): 0.241 | relative viability (Calu-6; first compound 500 µM): 0.0719 | relative viability (EBC-1; first compound 5 µM): 0.576 | relative viability (EBC-1; first compound 15.81 µM): 0.51 | relative viability (EBC-1; first compound 50 µM): 0.481 | relative viability (EBC-1; first compound 158.11 µM): 0.0828 | relative viability (EBC-1; first compound 500 µM): 0.0663 | relative viability (IA-LM; first compound 5 µM): 0.729 | relative viability (IA-LM; first compound 15.81 µM): 0.697 | relative viability (IA-LM; first compound 50 µM): 0.758 | relative viability (IA-LM; first compound 158.11 µM): 0.0988 | relative viability (IA-LM; first compound 500 µM): 0.0045 | relative viability (NCI-H1299; first compound 5 µM): 1.01 | relative viability (NCI-H1299; first compound 15.81 µM): 1.01 | relative viability (NCI-H1299; first compound 50 µM): 1.05 | relative viability (NCI-H1299; first compound 158.11 µM): 1.06 | relative viability (NCI-H1299; first compound 500 µM): 1.03 | relative viability (NCI-H1563; first compound 5 µM): 0.956 | relative viability (NCI-H1563; first compound 15.81 µM): 0.859 | relative viability (NCI-H1563; first compound 50 µM): 0.848 | relative viability (NCI-H1563; first compound 158.11 µM): 0.508 | relative viability (NCI-H1563; first compound 500 µM): 0.208 | relative viability (NCI-H1703; first compound 5 µM): 0.29 | relative viability (NCI-H1703; first compound 15.81 µM): 0.375 | relative viability (NCI-H1703; first compound 50 µM): 0.316 | relative viability (NCI-H1703; first compound 158.11 µM): 0.174 | relative viability (NCI-H1703; first compound 500 µM): 0.102

O=c1[nH]c2ccccc2n1C1CCN(CCCC(c2ccc(F)cc2)c2ccc(F)cc2)CC1 [Pimozide] + C[C@]1(O)C[C@@H](c2nc(-c3ccc4ccc(-c5ccccc5)nc4c3)c3c(N)nccn32)C1 [Linsitinib] (partner 1 µM)
relative viability (A549; first compound 0.08 µM): 0.426 | relative viability (A549; first compound 0.253 µM): 0.497 | relative viability (A549; first compound 0.8 µM): 0.627 | relative viability (A549; first compound 2.53 µM): 0.548 | relative viability (A549; first compound 8 µM): 0.619 | relative viability (Calu-6; first compound 0.08 µM): 0.986 | relative viability (Calu-6; first compound 0.253 µM): 0.94 | relative viability (Calu-6; first compound 0.8 µM): 0.843 | relative viability (Calu-6; first compound 2.53 µM): 0.881 | relative viability (Calu-6; first compound 8 µM): 0.913 | relative viability (EBC-1; first compound 0.08 µM): 0.867 | relative viability (EBC-1; first compound 0.253 µM): 0.844 | relative viability (EBC-1; first compound 0.8 µM): 0.766 | relative viability (EBC-1; first compound 2.53 µM): 0.821 | relative viability (EBC-1; first compound 8 µM): 0.892 | relative viability (IA-LM; first compound 0.08 µM): 0.652 | relative viability (IA-LM; first compound 0.253 µM): 0.566 | relative viability (IA-LM; first compound 0.8 µM): 0.356 | relative viability (IA-LM; first compound 2.53 µM): 0.456 | relative viability (IA-LM; first compound 8 µM): 0.759 | relative viability (NCI-H1299; first compound 0.08 µM): 0.949 | relative viability (NCI-H1299; first compound 0.253 µM): 0.945 | relative viability (NCI-H1299; first compound 0.8 µM): 0.923 | relative viability (NCI-H1299; first compound 2.53 µM): 0.899 | relative viability (NCI-H1299; first compound 8 µM): 0.949 | relative viability (NCI-H1563; first compound 0.08 µM): 1.12 | relative viability (NCI-H1563; first compound 0.253 µM): 1.19 | relative viability (NCI-H1563; first compound 0.8 µM): 1.35 | relative viability (NCI-H1563; first compound 2.53 µM): 1.16 | relative viability (NCI-H1563; first compound 8 µM): 0.861 | relative viability (NCI-H1703; first compound 0.08 µM): 0.637 | relative viability (NCI-H1703; first compound 0.253 µM): 0.544 | relative viability (NCI-H1703; first compound 0.8 µM): 0.637 | relative viability (NCI-H1703; first compound 2.53 µM): 0.514 | relative viability (NCI-H1703; first compound 8 µM): 0.553

O=C(O)CCCCC(CCSCc1ccccc1)SCc1ccccc1 (stereo not given) [CPI-613] + CS(=O)(=O)N1CCN(Cc2cc3nc(-c4cccc5[nH]ncc45)nc(N4CCOCC4)c3s2)CC1 [Pictilisib] (partner 1 µM)
relative viability (A549; first compound 5 µM): 0.491 | relative viability (A549; first compound 15.81 µM): 0.414 | relative viability (A549; first compound 50 µM): 0.39 | relative viability (A549; first compound 158.11 µM): 0.127 | relative viability (A549; first compound 500 µM): 0.0559 | relative viability (Calu-6; first compound 5 µM): 0.938 | relative viability (Calu-6; first compound 15.81 µM): 0.811 | relative viability (Calu-6; first compound 50 µM): 0.754 | relative viability (Calu-6; first compound 158.11 µM): 0.446 | relative viability (Calu-6; first compound 500 µM): 0.111 | relative viability (EBC-1; first compound 5 µM): 0.391 | relative viability (EBC-1; first compound 15.81 µM): 0.37 | relative viability (EBC-1; first compound 50 µM): 0.362 | relative viability (EBC-1; first compound 158.11 µM): 0.206 | relative viability (EBC-1; first compound 500 µM): 0.0773 | relative viability (IA-LM; first compound 5 µM): 0.294 | relative viability (IA-LM; first compound 15.81 µM): 0.307 | relative viability (IA-LM; first compound 50 µM): 0.238 | relative viability (IA-LM; first compound 158.11 µM): 0.0746 | relative viability (IA-LM; first compound 500 µM): 0.0098 | relative viability (NCI-H1299; first compound 5 µM): 0.789 | relative viability (NCI-H1299; first compound 15.81 µM): 0.756 | relative viability (NCI-H1299; first compound 50 µM): 0.785 | relative viability (NCI-H1299; first compound 158.11 µM): 0.404 | relative viability (NCI-H1299; first compound 500 µM): 0.106 | relative viability (NCI-H1563; first compound 5 µM): 0.657 | relative viability (NCI-H1563; first compound 15.81 µM): 0.597 | relative viability (NCI-H1563; first compound 50 µM): 0.623 | relative viability (NCI-H1563; first compound 158.11 µM): 0.513 | relative viability (NCI-H1563; first compound 500 µM): 0.193 | relative viability (NCI-H1703; first compound 5 µM): 0.25 | relative viability (NCI-H1703; first compound 15.81 µM): 0.264 | relative viability (NCI-H1703; first compound 50 µM): 0.27 | relative viability (NCI-H1703; first compound 158.11 µM): 0.213 | relative viability (NCI-H1703; first compound 500 µM): 0.115

Source: the supplement of paper PMC10307832
